This assay has as its target T1, Human CXCR2 Receptor (Homo sapiens, UniProt P25025).
T1 construct: purchased Biosignal Packard Inc; host or cells: Chinese hamster ovary cells (CHO-K1), membranes
T1 sequence (P25025 1-360): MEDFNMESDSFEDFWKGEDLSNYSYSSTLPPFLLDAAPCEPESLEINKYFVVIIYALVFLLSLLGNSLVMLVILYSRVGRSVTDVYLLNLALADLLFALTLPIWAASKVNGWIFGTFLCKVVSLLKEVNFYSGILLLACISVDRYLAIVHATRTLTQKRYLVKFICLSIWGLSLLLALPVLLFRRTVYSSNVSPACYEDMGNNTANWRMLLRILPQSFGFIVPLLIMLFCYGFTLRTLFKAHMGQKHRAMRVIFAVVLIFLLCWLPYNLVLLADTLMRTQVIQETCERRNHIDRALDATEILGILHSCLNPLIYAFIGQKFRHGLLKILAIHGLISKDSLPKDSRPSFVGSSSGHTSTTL
Briefly: [35S]-GTPγS binding assay for human CXCR2 receptor using SPA technology. The note with it: CHO-K1 membranes expressing human CXCR2; 100 nM IL-8 stimulated; read-out: IC50 values in the [35S]-GPTγS binding assay. Type of assay: biochemical. The text has this:
[^35S]-GTPγS Binding Assay for Human CXCR2 Receptor Using SPA Technology
[^35S]-GTPγS (with specific activity 1082 Ci/mmol) and wheat germ agglutinin poly vinyl toluene scintillation proximity beads are purchased from Amersham Pharmacia Biotech. The Chinese hamster ovary cell (CHO-K1) membranes expressing human CXCR2 receptors are purchased from Biosignal Packard Inc. All other chemicals are of analytical grade. White non-binding surface 96 well Optiplate™ microplates are obtained from Packard. Recombinant human IL-8 is synthesised, cloned and expressed in Escherichia coli as described previously (Lindley I, et al., Proc. Natl. Acad. Sci., 1988, 85(23):9199). The assay is performed in duplicate in 96 well Optiplate™ microplate in a final volume of 250 μl per well. Compounds are diluted in DMSO (0.5% final concentration) and incubated in 20 mM HEPES buffer pH 7.4 containing 10 mM MgCl2, 100 mM NaCl, 1 mM EDTA plus 100 nM IL-8, 50 μM GDP and […] [^35S]GTPγS per well. SPA beads (1 mg/well final concentration) were pre-mixed with the membranes (10 μg/well final concentration) in assay buffer: 20 mM HEPES buffer pH 7.4 containing 10 mM MgCl2, 100 mM NaCl, 1 mM EDTA. […] The plate is centrifuged and read on Packard TopCoun™ scintillation counter, program [^35S dpm] for 1 min/well. Data are expressed as the % response to 100 nM IL-8 minus basal.
(GTPγS resists hydrolysis and so accumulates on activated G proteins.)

In general, IC50 refers to the point on the concentration scale where inhibition reaches its midpoint. As to `CC[C@@H](Nc1c(Nc2ccc(Cl)c(S(=O)(=O)N3CCCC3)c2O)c(=O)c1=O)[C@H]1CC[C@@H](C)O1` [Example 17, 3-[4-Chloro-2-hydroxy-3-(pyrrolidine-1-sulfonyl)-phenylamino]-4-[(R)-1-((2R,5R)-5-methyl-tetrahydrofuran-2-yl)-propylamino]-cyclobut-3-ene-1,2-dione], the IC50 was 58 nM. `O=c1c(Nc2ccc(Cl)c(S(=O)(=O)N3CCOCC3)c2O)c(NC2CCSC2)c1=O` (centres unmarked) [Example 7, 3-[4-Chloro-2-hydroxy-3-(morpholine-4-sulfonyl)-phenylamino]-4-(tetra-hydro-thiophen-3-ylamino)-cyclobut-3-ene-1,2-dione]: the IC50 turned out to be 22 nM.

The values are drawn from patent US8183281B2, “CXC-chemokine receptor ligands” (Novartis AG, priority 2007, dated 2012).
